Series [1] has as its system HBEC3-KT. In words: Cytotoxicity against human HBEC3-KT incubated for 24 hrs by LDH assay. The class given is functional.
The nature of series [2]: Retention time of the compound by HPLC analysis. The class given is physicochemical.
The subject of series [3] is HBEC3-KT. Put plainly: Antiinflammatory activity in INFgamma-induced MCP1 expressed in human HBEC3-KT cells assessed as fold change measured after 24 hrs by ELISA relative to control. The class given is functional.
In series [4] the test system is HBEC3-KT. In words: Antiinflammatory activity in human HBEC3-KT cells assessed as effect on MCP1 expression measured after 24 hrs by ELISA relative to control. In kind it is functional, cell-based.
The subject of series [5] is HBEC3-KT. In words: Immunomodulatory activity in human HBEC3-KT cells assessed as suppression of INFgamma-induced IL-33 at 10 uM preincubated for 30 mins followed by INFgamma stimulation and measured after 24 hrs by Western blot analysis. In kind it is functional. The following applies: 0.5 h. A general note: Immunoblotting shows a protein as a band on a membrane.
In series [6] the test system is HBEC3-KT. Put plainly: Antiinflammatory activity in human HBEC3-KT cells assessed as fold increase in IL-1RA expression at 10 uM measured after 24 hrs by ELISA relative to control. The class given is functional. For orientation: In an ELISA, binding on a coated surface is turned into a signal by an enzyme label.
Series [7] concerns HBEC3-KT. In words: Antiinflammatory activity in human HBEC3-KT cells assessed as fold increase in STC1 expression at 10 uM measured after 24 hrs by ELISA relative to control. In kind it is functional.

The source made the active and inactive calls. The rule behind the calls is not given here.

Turning to H-VLRWLIVWRIRK-OH, in series [1], the Activity is given as 50%. For the same substance, the Retention_time in series [2] was found to be 17.4 min.

As to H-VQRWLIVIRIRK-OH, the Activity in series [1] was 50%. The substance further gave a Retention_time in series [2] of 14.48 min.

Turning to H-VQRWLIVWRIWK-OH, the Activity in series [1] was found to be 50%. Further, the Retention_time in series [2] amounted to 18.47 min.

In the case of H-VQRWLIVWVIRK-OH, the Activity in series [1] amounted to 50%. The same substance gave a Retention_time in series [2] of 18.05 min.

Take H-VRRWLIVWRIRK-OH: the entries for the “fold change (FC)” value in series [3], in series [6] and in series [7] were 2.9, 2.6 and 6, respectively. Moreover, the result in series [4] was inactive. In addition, the Activity was 70% in series [5] and “<=15%” in series [1]. In series [2], this substance came in with a Retention_time of 16.06 min.

Values taken from ChEMBL document CHEMBL5046216, “Disrupting Tryptophan in the Central Hydrophobic Region Selectively Mitigates Immunomodulatory Activities of the Innate Defence Regulator Peptide IDR-1002” (J Med Chem, 2021).
